Experiments:
HepG2 cells [1] = experiment: Flow cytometric analysis of cell cycle; assay type: cell-based, human; settings: 3 μM BaP
Experimental: (§1) Two independent experiments were conducted.
(§2) Analyses of cell cycle profiles and apoptosis was performed as previously described using a FACSort (Becton Dickinson, Sunnyvale, USA) (29). For DNA content cells were stained with propidium iodide; apoptotic cells were visualised with the primary antibody M30 CytoDeath (Roche, Penzberg, Germany) and FITC conjugated anti-mouse Ig as secondary antibody (DakoCytomation, Glostrup, Denmark). For each sample 10,000 cells were analyzed. Cells in the G0-1, S or G2-M phase were expressed as a percentage of the total number of cells.

HepG2 cells [2] = experiment: Flow cytometric analysis of apoptosis (M30 CytoDeath); assay type: cell-based; settings: human, 3 μM
Experimental: as §1, §2

HepG2 cells [3] = experiment: Gene expression analyses with DNA microarrays (Agilent), Reactome and T-profiler; assay type: cell-based, human; settings: 3 μM BaP
Experimental: Labelling and hybridisation of RNA samples was done according to Agilent's manual for microarrays (Agilent Technologies, Breda, The Netherlands). […] For each biological experiment, two hybridizations per time point were conducted, with swapped Cy3 and Cy5 dyes.
The images (10 micron resolution; 16 bit tiff) were processed with ImaGene 6.0 to quantify spot signals (BioDiscovery Inc., Los Angeles, USA). Irregular spots were automatically flagged and excluded from data analysis. Data from ImaGene were further processed with GeneSight 4.1.6 (BioDiscovery Inc., Los Angeles, USA). For each spot, background was subtracted and flagged spots as well as spots with a net expression level below 20 in both channels were omitted. Data were log base 2 transformed and LOWESS normalized. If for a gene more probes were on the array, replicates were averaged while omitting outliers (>2 standard deviations). Raw data are available at ArrayExpress (accession numbers E-TOXM-22 and E-TOXM-23, for the first and second experiment respectively) (www.ebi.ac.uk/arrayexpress/).
Second, genes were selected by ANOVA using the plug-in “Time series analysis” from BRB Array Tools (version 3.4 and R version 2.2.0; linus.nci.nih.gov/BRB-ArrayTools.html) with “Time” as descriptor.
Reactome (www.reactome.org; Version 25, August 2008) (45) is used to examine the biological processes that may be affected at the level of reactions and reaction pathways, a level of detail that cannot be obtained by gene ontology annotations, and KEGG and BioCarta pathways. Reactions are grouped into causal chains to form pathways. […] The ratio of these number of differentially genes per event with total numbers present in the set of 2808 genes, are used for visualisation of affected pathways. Rctions were ordered by main pathway and sub-pathway.
T-profiler is used for functional annotation of pathways and processes in the complete data set of genes without pre-selecting modulated genes. T-profiler uses the unpaired t-test to score the difference between the mean expression level of predefined sets of genes and that of all other genes within the complete data set (46). […] Per experiment and time point t-values were determined for each gene set. Only gene sets with an absolute t-value>4 at at least 2 succeeding time points in both experiments were selected for further analyses.

c1ccc2c(c1)cc1ccc3cccc4ccc2c1c34 [BaP, benzo[a]pyrene]
duration of S-phase accumulation (HepG2 cells [1]): 6 to 18 h
time after which cell cycle distribution becomes similar to that of the controls (HepG2 cells [1]): about 54 h
S-phase cells (HepG2 cells [1]; at 18 h, concomitant decrease of cells in G1 and G2 phases): drastic increase
apoptotic cells levels (HepG2 cells [2]): 0.5-3%
POLR2A expression (TC-NER) (HepG2 cells [3]): upregulated at early time points
POLR2D expression (TC-NER) (HepG2 cells [3]): downregulated at late time points
base excision repair and global genomic repair pathways (HepG2 cells [3]): induced from 9/12 h until 60 h
period of upregulation of DDB2 (GG-NER) (HepG2 cells [3]): 9 to 60 h
period of upregulation of GC-NER (global genomic NER) reaction pathway (HepG2 cells [3]): 9 to 60 h
period of upregulation of TC-NER reaction pathway (HepG2 cells [3]): 9 to 42 h

Source: patent US8278044B2, “Method for the identification of carcinogenic compounds” (priority 2008, dated 2012)
